Experimental data reported in patent US20070280915A1, “Combination Therapies Employing A Composition Comprising A Hmg Coa Reductase Inhibitor And A Vitamin B6 Related Compound” (priority 2003, published 2007).

System: patients who underwent percutaneous coronary intervention (PCI)
Test: Randomized double-blinded study of P5P vs placebo in high-risk percutaneous coronary intervention (PCI)
Assay type: in vivo
Description: Inclusion criteria required prior determination for non-urgent PCI of a single-vessel lesion(s) and identification of ≧1 of the following clinical characteristics determining high risk for procedural-related ischemic complications (Califf R M, Abdelmeguid A E, Kuntz R E, Popma J J, Davidson C J, Cohen E A, Kleiman N S, Mahaffey K W, Topol E J, Pepine C J, et al. Myonecrosis after revascularization procedures. J Am Coll Cardiol 1998; 31:241-251; The ESPRIT Investigators. Novel dosing regimen of eptifibatide in planned coronary stent implantation: a randomised, placebo-controlled trial. Lancet 2000; 356:2037-2044): presence of an acute coronary syndrome (chest pain within 48 hours of PCI), recent AMI (≦7 days), diminished epicardial blood flow, angiographic thrombus, ejection fraction ≦30%, or vein graft lesion. In addition to any general contraindication to the PCI procedure or standard concomitant therapies, major exclusion criteria were creatine kinase (CK-MB) elevation above the upper limit of normal immediately before PCI, electrocardiographic evidence of atrial fibrillation or left bundle branch block, or evidence of any clinically significant abnormal laboratory finding (transaminases, bilirubin, or alkaline phosphatase >1.5 times the upper limit of normal or serum creatinine >1.8 mg/dl). Patients with elevated troponin measurements were permitted in the study provided that the peak troponin value was reported >24 hours before scheduled PCI, with documentation of a decreasing value before revascularization. […] Compliance and reasons for discontinued treatments were recorded for all patients.
Study end points and definitions—The primary objective of the study was to evaluate the feasibility of treatment with P5P as a cardioprotective agent in high-risk elective PCI. The primary end point of infarct size was evaluated by the trapezoidal rule (Press W H, Teukolsky S A, Vetterling W T, Flannery B P. Numerical Recipes. Cambridge, UK: Cambridge University Press, 1994:127-133.) using serial CK-MB enzyme measures performed at baseline and every 6 hours for 24 hours beginning immediately before initiation of PCI. The occurrence of myocardial ischemia within 24 hours after PCI was assessed as a secondary end point using continuous 12-lead electrocardiographic monitoring (Northeast Monitoring, Boston, Mass.). Evidence of periprocedural ischemia was defined as ST-segment depression of >100 μV within a 60-minute period of PCI, lasting ≧1 minute and separated from other episodes by 1 minute. Area under the curve ST-segment deviation was measured from the onset of the first to the last contrast injection. All cardiac markers and ST-segment monitoring data were analyzed by core laboratories blinded to treatment assignment (University of Maryland School of Medicine, Baltimore, Md.; Duke Ischemia Monitoring Laboratory, Durham, N.C.). Additional prespecified secondary end points included the 30-day composite and individual event rates of death; nonfatal infarction; new or worsening heart failure, or recurrent ischemia in addition to net clinical safety, which was defined as the absence of major adverse ischemic events; Thrombolysis In Myocardial Infarction (TIMI) major bleeding; and liver function or coagulation test abnormalities. Acute myocardial infarction (AMI) was defined as CK-MB elevation ≧3 times the upper limit of normal (upper limit of normal 7 ng/ml) and/or troponin T levels […] the upper limit of normal (upper limit of normal 0.1 ng/ml). If previous troponin (or CKMB) values were above the upper limit of normal, values were required to be 50% of the baseline measurement in addition to ≧2 times (≧3 times for CK-MB) the upper limit of normal to meet the definition of AMI. Routine chemistries, complete blood count, and coagulation assays were performed at baseline, 7 days, and 30 days after randomization. […]

Cc1ncc(COP(=O)(O)O)c(C=O)c1O [P5P, pyridoxal-5-phosphate]
safety issues related to treatment (60 patients in safety analyses): No safety issues
Area under the curve ST deviation (24 h continuous electrocardiographic ST-monitoring, median (interquartile range)): 1349 (951-2,263), μV-min
Any post-PCI ischemia (24 h continuous electrocardiographic ST-monitoring, percent of patients): 14.7-34%
deaths (30 days): no deaths
occurrence of 30-day nonfatal AMI (30 days, vs 10.0% with placebo, p=1.0): 12.8%
30-day composite adverse event rate (death, nonfatal AMI, new and/or worsening heart failure, or recurrent ischemia) (30 days, vs 15.0% with placebo, p=1.0): 17.9%
abnormalities of routine chemistries or coagulation studies (at 7 and 30 days, vs placebo): no apparent differences
CK-MB max (mean) (mean per therapy subgroup, with or without adjunctive statin): 0.73 ng/mL
Time to peak CK-MB (median (interquartile range)): 11.0 (0-18.0), 36 h
Area under the curve CK-MB (median (interquartile range), P5P 10 mg/kg oral before PCI, then 5 mg/kg twice daily): 1.1 (0.5-2.4), 39 ng/ml
Change in troponin T (median (interquartile range), baseline to within 24 hours after PCI): 0 (0 = 0.7), 36 ng/ml
Periprocedural cardiac markers (median (interquartile range), enteric-coated P5P 10 mg/kg oral before PCI, then 5 mg/kg twice daily 14 days): 18.6 (10.2-34.5),
maximum periprocedural CK-MB level (patients receiving P5P vs placebo): significantly lower
need for blood product transfusion (vs 10.00% placebo, p=0.26): 2.5%
occurrence of major bleeding (vs 10.5% placebo, p=0.27): 2.8%
patients who discontinued drug therapy before completion of the prescribed 2 weeks (vs 25.0% placebo, p=0.77): 30.8%
median periprocedural CK-MB area under the curve (periprocedural infarct size, primary end point) (vs 32.9 with placebo, p=0.038): 18.6 ng/mL
